Some test systems named below: SF-295 CNS; LOX IMVI melanoma; OVCAR-3 ovarian; SK-MEL-2 melanoma; A549 NSCLC; COLO 205 colon; MOLT-4 leukemia; UO-31 renal; RPMI-8226 leukemia; MALME-3M melanoma; HCT-116 colon; OVCAR-4 ovarian; K-562 leukemia; IGROV1 ovarian; SN12C renal; NCI-H23 lung; HOP-62 NSCLC; NCI-H460 lung.
Common to all, as to experiment: NCI tumour cell line growth inhibition, 48 h

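Test compounds were applied to cells in 96-well plates for 48 hours at 5 doses. TGI: total growth inhibition.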

As to `COc1ccc(/C=C2\NC(=S)N(CN3CCCCC3)C2=O)cc1`, the TGI was above 100 µM in the experiment on SF-295 CNS; 93.3 µM in the experiment with LOX IMVI melanoma; above 100 µM in the experiment on OVCAR-3 ovarian; above 100 µM in the experiment with SK-MEL-2 melanoma; above 100 µM with A549 NSCLC; 85.6 µM in the experiment with COLO 205 colon. Moreover, the TGI with MOLT-4 leukemia was above 100 µM; in the experiment with UO-31 renal, above 100 µM; in the experiment with RPMI-8226 leukemia, above 100 µM; in the experiment with MALME-3M melanoma, above 100 µM; with HCT-116 colon it was above 100 µM; with OVCAR-4 ovarian, 78.8 µM. Also, the TGI in the experiment with K-562 leukemia, in the experiment with IGROV1 ovarian, in the experiment on SN12C renal, with NCI-H23 lung and in the experiment on HOP-62 NSCLC was above 100 µM each time.

In the case of `O=C1C(Cl)=C(OCCCCl)C(=O)c2c(O)ccc(O)c21`, the TGI in the experiment with SF-295 CNS is 18.3 µM; in the experiment with LOX IMVI melanoma, 3.35 µM; with OVCAR-3 ovarian, 6.77 µM; with A549 NSCLC it was 14.6 µM; in the experiment with COLO 205 colon it was 3.09 µM; in the experiment with MOLT-4 leukemia it was 1.86 µM. Also, the TGI in the experiment with NCI-H460 lung was 27.2 µM; in the experiment on UO-31 renal it was 12.1 µM; in the experiment on RPMI-8226 leukemia, 5.58 µM; in the experiment on MALME-3M melanoma it was 3.6 µM; in the experiment with HCT-116 colon, 3.91 µM; in the experiment with OVCAR-4 ovarian, 7.14 µM. Moreover, the TGI is 1.7 µM with K-562 leukemia; 13.1 µM with IGROV1 ovarian; 5.1 µM with SN12C renal; 5.53 µM in the experiment on NCI-H23 lung; 22 µM with HOP-62 NSCLC.

Regarding `NC(=O)N=C(N(Cc1ccccc1)Cc1ccccc1)N(Cc1ccccc1)Cc1ccccc1`, the TGI in the experiment on SF-295 CNS was 35.1 µM; in the experiment with LOX IMVI melanoma, above 100 µM; in the experiment with OVCAR-3 ovarian, above 100 µM; in the experiment with SK-MEL-2 melanoma it was above 100 µM; in the experiment on A549 NSCLC, above 100 µM; in the experiment on MOLT-4 leukemia, above 100 µM. Besides, the TGI was above 100 µM with NCI-H460 lung; above 100 µM with UO-31 renal; above 100 µM in the experiment with RPMI-8226 leukemia; above 100 µM with MALME-3M melanoma; above 100 µM in the experiment with HCT-116 colon; above 75.6 µM in the experiment with OVCAR-4 ovarian. The TGI in the experiment with K-562 leukemia was above 100 µM; with IGROV1 ovarian, above 100 µM; in the experiment on SN12C renal it was above 100 µM; in the experiment on NCI-H23 lung, above 100 µM; in the experiment on HOP-62 NSCLC, above 65.8 µM.

As to `CCOP(=O)(OCC)C1CC(O)C(=O)N1` (centres undefined), the TGI in the experiment on SF-295 CNS, with LOX IMVI melanoma, with OVCAR-3 ovarian, in the experiment with SK-MEL-2 melanoma, with A549 NSCLC and in the experiment with COLO 205 colon was above 100 µM each time. The TGI in the experiment with MOLT-4 leukemia, with UO-31 renal, in the experiment on RPMI-8226 leukemia, in the experiment on MALME-3M melanoma, in the experiment with HCT-116 colon and in the experiment with OVCAR-4 ovarian was above 100 µM each time. Moreover, the TGI in the experiment with K-562 leukemia, in the experiment on IGROV1 ovarian, with SN12C renal, in the experiment with NCI-H23 lung and with HOP-62 NSCLC was above 100 µM in each case.

`O=S(=O)(O)c1ccc(O)c2ncc(Cl)cc12`: the TGI in the experiment with SF-295 CNS, in the experiment on LOX IMVI melanoma, in the experiment on OVCAR-3 ovarian, in the experiment on SK-MEL-2 melanoma, in the experiment with A549 NSCLC and in the experiment on COLO 205 colon was above 100 µM in each case. Further, the TGI in the experiment with MOLT-4 leukemia, in the experiment with NCI-H460 lung, with UO-31 renal, with RPMI-8226 leukemia, in the experiment with HCT-116 colon and in the experiment on OVCAR-4 ovarian was above 100 µM each time. The TGI in the experiment on K-562 leukemia, in the experiment with IGROV1 ovarian, with SN12C renal, with NCI-H23 lung and with HOP-62 NSCLC was above 100 µM each time.

On to `COC(=O)C(CC12CC3CC(CC(C3)C1)C2)NC(=O)C(N)CC(=O)O` (centres undefined), for which the TGI in the experiment on SF-295 CNS, in the experiment on SK-MEL-2 melanoma, in the experiment with A549 NSCLC, in the experiment on COLO 205 colon, in the experiment on MOLT-4 leukemia and in the experiment on NCI-H460 lung was above 100 µM each time. The TGI in the experiment on UO-31 renal, in the experiment with RPMI-8226 leukemia, in the experiment on HCT-116 colon, with OVCAR-4 ovarian, with K-562 leukemia and with IGROV1 ovarian was above 100 µM in each case. Besides, the TGI with SN12C renal, in the experiment on NCI-H23 lung and in the experiment with HOP-62 NSCLC was above 100 µM throughout.

With `CC(=O)N1C(=O)/C(=C\C(=O)c2ccc([N+](=O)[O-])cc2)c2ccccc21`, the TGI in the experiment with SF-295 CNS was above 100 µM; in the experiment on OVCAR-3 ovarian it was 32.2 µM; with SK-MEL-2 melanoma, above 100 µM; in the experiment on A549 NSCLC, above 100 µM; in the experiment on COLO 205 colon, 41.1 µM; in the experiment on MOLT-4 leukemia it was 51.6 µM. Moreover, the TGI was 39.9 µM with NCI-H460 lung; 63 µM with UO-31 renal; 45.9 µM in the experiment with MALME-3M melanoma; 37.8 µM in the experiment on HCT-116 colon; 34.5 µM in the experiment on OVCAR-4 ovarian; 36.5 µM with K-562 leukemia. Moreover, the TGI in the experiment with IGROV1 ovarian was 53.9 µM; in the experiment with SN12C renal it was 35 µM; in the experiment on NCI-H23 lung, 88.7 µM; in the experiment with HOP-62 NSCLC, above 100 µM.

For `O=C(/C=C/c1ccccc1)/C=N/N1C(=S)N(c2ccccc2)C(=Nc2ccccc2)C1=Nc1ccccc1`, the TGI in the experiment on SF-295 CNS, with OVCAR-3 ovarian, in the experiment with SK-MEL-2 melanoma, with A549 NSCLC, in the experiment with COLO 205 colon and in the experiment on MOLT-4 leukemia was above 100 µM in each case. Also, the TGI in the experiment on NCI-H460 lung, in the experiment with UO-31 renal, with RPMI-8226 leukemia, in the experiment with MALME-3M melanoma, with HCT-116 colon and with K-562 leukemia was above 100 µM in each case. Moreover, the TGI in the experiment with IGROV1 ovarian, in the experiment with SN12C renal, in the experiment on NCI-H23 lung and in the experiment with HOP-62 NSCLC was above 100 µM throughout.

For the compound `NC(=O)NNc1nc2ccccc2c(=O)n1NC(=O)C(=O)Nc1ccc(Cl)cc1Cl`, the TGI in the experiment with SF-295 CNS, in the experiment with LOX IMVI melanoma, in the experiment on OVCAR-3 ovarian, with SK-MEL-2 melanoma, with A549 NSCLC and in the experiment with MOLT-4 leukemia was above 100 µM in each case. Also, the TGI in the experiment on NCI-H460 lung, with UO-31 renal, in the experiment on RPMI-8226 leukemia, with MALME-3M melanoma, with HCT-116 colon and with OVCAR-4 ovarian was above 100 µM throughout. Further, the TGI with K-562 leukemia, in the experiment on IGROV1 ovarian, in the experiment with SN12C renal, in the experiment on NCI-H23 lung and in the experiment with HOP-62 NSCLC was above 100 µM in each case.

In the case of `O=C(Cc1ccccc1)NNc1nc(NNC(=O)c2ccncc2)nc(Nc2ccc([N+](=O)[O-])cc2)n1`, the TGI in the experiment on SF-295 CNS, in the experiment on LOX IMVI melanoma, in the experiment on OVCAR-3 ovarian, in the experiment on A549 NSCLC, in the experiment with COLO 205 colon and in the experiment on MOLT-4 leukemia was above 10 µM each time. The TGI with NCI-H460 lung, in the experiment on UO-31 renal, in the experiment with RPMI-8226 leukemia, with MALME-3M melanoma, in the experiment with HCT-116 colon and with OVCAR-4 ovarian was above 10 µM throughout. In addition, the TGI in the experiment on K-562 leukemia, with IGROV1 ovarian, with SN12C renal, with NCI-H23 lung and in the experiment with HOP-62 NSCLC was above 10 µM each time.

For the compound `CCCCCCCCCCCC(=O)Oc1c(Cl)cc(Cl)c(OC(=O)C(=O)Oc2c(Cl)cc(Cl)c(OC(=O)CCCCCCCCCCC)c2Cl)c1Cl`, the TGI in the experiment on SF-295 CNS, in the experiment on LOX IMVI melanoma, with A549 NSCLC, in the experiment on COLO 205 colon, in the experiment with MOLT-4 leukemia and with NCI-H460 lung was above 100 µM each time. In addition, the TGI with UO-31 renal, in the experiment on RPMI-8226 leukemia, in the experiment on MALME-3M melanoma, in the experiment on HCT-116 colon, in the experiment with OVCAR-4 ovarian and in the experiment with IGROV1 ovarian was above 100 µM throughout. Also, the TGI in the experiment with SN12C renal, in the experiment with NCI-H23 lung and with HOP-62 NSCLC was above 100 µM throughout.

Consider `CC12CCC(CC1=O)C2(C)CCC(N)=O` (centres undefined), for which the TGI in the experiment with SF-295 CNS, in the experiment on OVCAR-3 ovarian, in the experiment on SK-MEL-2 melanoma, with A549 NSCLC, with COLO 205 colon and in the experiment with MOLT-4 leukemia was above 100 µM throughout. For the same compound, the TGI in the experiment with UO-31 renal, in the experiment with RPMI-8226 leukemia, with MALME-3M melanoma, in the experiment with HCT-116 colon, in the experiment on OVCAR-4 ovarian and in the experiment on K-562 leukemia was above 100 µM each time. Moreover, the TGI in the experiment on IGROV1 ovarian, with SN12C renal, with NCI-H23 lung and with HOP-62 NSCLC was above 100 µM throughout.

As for `O=C(/C=C(\O)c1ccccc1)C(=O)NNc1ccc([N+](=O)[O-])cc1[N+](=O)[O-]`, the TGI in the experiment with SF-295 CNS was 29.8 µM; with LOX IMVI melanoma, 64.3 µM; in the experiment on SK-MEL-2 melanoma, above 100 µM; in the experiment on A549 NSCLC, 34.1 µM; with COLO 205 colon it was 32.3 µM; in the experiment with MOLT-4 leukemia it was 38.3 µM. The TGI with NCI-H460 lung worked out at 40.2 µM; in the experiment with UO-31 renal, 27.5 µM; in the experiment on RPMI-8226 leukemia, 82.4 µM; with MALME-3M melanoma, 82.4 µM; in the experiment on HCT-116 colon it was 27.4 µM; in the experiment on OVCAR-4 ovarian, 95 µM. Besides, the TGI stood at 95.1 µM with K-562 leukemia; 38.2 µM in the experiment on IGROV1 ovarian; 31.8 µM with SN12C renal; 47.2 µM with NCI-H23 lung; 37.8 µM with HOP-62 NSCLC.

Source of the values: PubChem BioAssay (NCI).
